Laboratory results from US9211310B2, “Use of a Chinese medicine composition in preparing medicaments for treating secondary prevention of myocardial infarction” (TASLY PHARMACEUTICAL GROUP CO., LTD, priority 2010, dated 2015).

System: patients after acute myocardial infarction
Experiment: TCM symptom score, total and single (chest pain, chest tightness, short breath, fatigue, palpitation, spontaneous perspiration, pale complexion), same clinical trial
Format: in vivo, human
Design: total score of TCM symptom, Mean / total score of TCM symptom, Min / total score of TCM symptom, Max / total score of TCM symptom, Md / change of total score of TCM symptom, Mean / change of total score of TCM symptom, Max / change of total score of TCM symptom, Md: scale not given here
Conditions: FAS
Text: 3508 patients who were in accordance with the diagnostic standards of AMI for 28 days to 2 years and differentiated as Qi deficiency and blood stagnation syndrome by TCM were studied. 0.5 g Chinese medicine composition prepared by the method of EXAMPLE 1 (Coded as QSYQ) was administrated half an hour after meal, 3 times per day.
They included the overall survival time, angina pectoris score, TCM symptom score and life quality score, where angina pectoris score, TCM symptom score and life quality score were evaluated at randomization, in 1st, 3rd, 6th, 9th, 12th month after treatment and 18th month after follow-up.
The analysis method referred to the angina pectoris score.

[1] = 12 months after treatment-baseline

CC(=O)Oc1ccccc1C(=O)O [Control group, aspirine]
change of palpitation 3, number of patients [1]: 8
change of palpitation 3, percent of patients [1]: (0.47%)
change of palpitation −1, percent of patients [1]: (6.55%)
change of palpitation −2, number of patients [1]: 4
change of palpitation −2, percent of patients [1]: (0.23%)
change of palpitation −3, number of patients [1]: 0
change of palpitation −3, percent of patients [1]: (0.00%)
change of spontaneous perspiration 0, number of patients [1]: 837
change of spontaneous perspiration 0, percent of patients [1]: (48.98%)
change of spontaneous perspiration 1, number of patients [1]: 550
change of spontaneous perspiration 1, percent of patients [1]: (32.18%)
change of spontaneous perspiration 2, number of patients [1]: 139
change of spontaneous perspiration 2, percent of patients [1]: (8.13%)
change of spontaneous perspiration 3, number of patients [1]: 34
change of spontaneous perspiration 3, percent of patients [1]: (1.99%)
change of spontaneous perspiration −1, number of patients [1]: 137
change of spontaneous perspiration −1, percent of patients [1]: (8.02%)
change of spontaneous perspiration −2, number of patients [1]: 12
change of spontaneous perspiration −2, percent of patients [1]: (0.70%)
change of spontaneous perspiration −3, number of patients [1]: 0
change of spontaneous perspiration −3, percent of patients [1]: (0.00%)
change of total score of TCM symptom, Max [1]: 18.00
change of total score of TCM symptom, Md [1]: −5.00
change of total score of TCM symptom, Mean [1]: −5.39
change of total score of TCM symptom, Min [1]: −33.00
distribution of total score of TCM symptom: Medium, number of patients (Baseline): 817
distribution of total score of TCM symptom: Medium, percentage of patients (Baseline): (47.83%)
distribution of total score of TCM symptom: Mild, number of patients (Baseline): 828
distribution of total score of TCM symptom: Mild, percentage of patients (Baseline): (48.48%)
distribution of total score of TCM symptom: Severe, number of patients (Baseline): 63
distribution of total score of TCM symptom: Severe, percentage of patients (Baseline): (3.69%)
fatigue score 0, % of patients (Baseline): (18.42%)
fatigue score 0, number of patients (Baseline): 315
fatigue score 2, % of patients (Baseline): (60.94%)
fatigue score 2, number of patients (Baseline): 1042
fatigue score 4, % of patients (Baseline): (16.90%)
fatigue score 4, number of patients (Baseline): 289
fatigue score 6, % of patients (Baseline): (3.74%)
fatigue score 6, number of patients (Baseline): 64
pale complexion score 0, number of patients (Baseline): 572
pale complexion score 0, percent of patients (Baseline): (33.47%)
pale complexion score 1, number of patients (Baseline): 741
pale complexion score 1, percent of patients (Baseline): (43.36%)
pale complexion score 2, number of patients (Baseline): 325
pale complexion score 2, percent of patients (Baseline): (19.02%)
pale complexion score 3, number of patients (Baseline): 71
pale complexion score 3, percent of patients (Baseline): (4.15%)
short breath score 0, % of patients (Baseline): (15.04%)
short breath score 0, number of patients (Baseline): 257
short breath score 3, % of patients (Baseline): (51.84%)
short breath score 3, number of patients (Baseline): 886
short breath score 6, % of patients (Baseline): (31.19%)
short breath score 6, number of patients (Baseline): 533
short breath score 9, % of patients (Baseline): (1.93%)
short breath score 9, number of patients (Baseline): 33
distribution of total score of TCM symptom: Medium, number of patients (Follow-up): 218
distribution of total score of TCM symptom: Medium, percentage of patients (Follow-up): (15.29%)
distribution of total score of TCM symptom: Mild, number of patients (Follow-up): 1205
distribution of total score of TCM symptom: Mild, percentage of patients (Follow-up): (84.50%)
distribution of total score of TCM symptom: Severe, number of patients (Follow-up): 3
distribution of total score of TCM symptom: Severe, percentage of patients (Follow-up): (0.21%)
fatigue score 0, % of patients (Follow-up): (42.76%)
fatigue score 0, number of patients (Follow-up): 611
fatigue score 2, % of patients (Follow-up): (53.11%)
fatigue score 2, number of patients (Follow-up): 759
fatigue score 4, % of patients (Follow-up): (3.92%)
fatigue score 4, number of patients (Follow-up): 56
fatigue score 6, % of patients (Follow-up): (0.21%)
fatigue score 6, number of patients (Follow-up): 3
pale complexion score 0, number of patients (Follow-up): 882
pale complexion score 0, percent of patients (Follow-up): (61.72%)
pale complexion score 1, number of patients (Follow-up): 465
pale complexion score 1, percent of patients (Follow-up): (32.54%)
pale complexion score 2, number of patients (Follow-up): 76
pale complexion score 2, percent of patients (Follow-up): (5.32%)
pale complexion score 3, number of patients (Follow-up): 6
pale complexion score 3, percent of patients (Follow-up): (0.42%)
palpitation score 0, number of patients (Follow-up): 631
palpitation score 0, percent of patients (Follow-up): (44.16%)
palpitation score 2, number of patients (Follow-up): 697
palpitation score 2, percent of patients (Follow-up): (48.78%)
palpitation score 4, number of patients (Follow-up): 95
palpitation score 4, percent of patients (Follow-up): (6.65%)
palpitation score 6, number of patients (Follow-up): 6
palpitation score 6, percent of patients (Follow-up): (0.42%)
short breath score 0, % of patients (Follow-up): (35.62%)
short breath score 0, number of patients (Follow-up): 509
short breath score 2, % of patients (Follow-up): (0.07%)
short breath score 2, number of patients (Follow-up): 1
short breath score 3, % of patients (Follow-up): (54.51%)
short breath score 3, number of patients (Follow-up): 779
short breath score 6, % of patients (Follow-up): (9.59%)
short breath score 6, number of patients (Follow-up): 137
short breath score 9, % of patients (Follow-up): (0.21%)
short breath score 9, number of patients (Follow-up): 3
spontaneous perspiration score 0, number of patients (Follow-up): 767
spontaneous perspiration score 0, percent of patients (Follow-up): (53.71%)
spontaneous perspiration score 1, number of patients (Follow-up): 595
spontaneous perspiration score 1, percent of patients (Follow-up): (41.67%)
spontaneous perspiration score 2, number of patients (Follow-up): 62
spontaneous perspiration score 2, percent of patients (Follow-up): (4.34%)
spontaneous perspiration score 3, number of patients (Follow-up): 4
spontaneous perspiration score 3, percent of patients (Follow-up): (0.28%)
total score of TCM symptom, Max (Follow-up): 32.00
total score of TCM symptom, Md (Follow-up): 7.00
total score of TCM symptom, Mean (Follow-up): 7.71
total score of TCM symptom, Min (Follow-up): 0.00
change of fatigue 0, % of patients (Follow-up-baseline): (42.67%)
change of fatigue 0, number of patients (Follow-up-baseline): 608
change of fatigue 2, % of patients (Follow-up-baseline): (37.68%)
change of fatigue 2, number of patients (Follow-up-baseline): 537
change of fatigue 4, % of patients (Follow-up-baseline): (11.09%)
change of fatigue 4, number of patients (Follow-up-baseline): 158
change of fatigue 6, % of patients (Follow-up-baseline): (2.11%)
change of fatigue 6, number of patients (Follow-up-baseline): 30
change of fatigue −2, % of patients (Follow-up-baseline): (6.11%)
change of fatigue −2, number of patients (Follow-up-baseline): 87
change of fatigue −4, % of patients (Follow-up-baseline): (0.35%)
change of fatigue −4, number of patients (Follow-up-baseline): 5
change of pale complexion 0, number of patients (Follow-up-baseline): 950
change of pale complexion 0, percent of patients (Follow-up-baseline): (66.95%)
change of pale complexion 1, number of patients (Follow-up-baseline): 430
change of pale complexion 1, percent of patients (Follow-up-baseline): (30.30%)
